The target of experiment [1] is T1, Amine oxidase [flavin-containing] B (Homo sapiens, UniProt P27338).
T1 sequence (P27338 whole entry): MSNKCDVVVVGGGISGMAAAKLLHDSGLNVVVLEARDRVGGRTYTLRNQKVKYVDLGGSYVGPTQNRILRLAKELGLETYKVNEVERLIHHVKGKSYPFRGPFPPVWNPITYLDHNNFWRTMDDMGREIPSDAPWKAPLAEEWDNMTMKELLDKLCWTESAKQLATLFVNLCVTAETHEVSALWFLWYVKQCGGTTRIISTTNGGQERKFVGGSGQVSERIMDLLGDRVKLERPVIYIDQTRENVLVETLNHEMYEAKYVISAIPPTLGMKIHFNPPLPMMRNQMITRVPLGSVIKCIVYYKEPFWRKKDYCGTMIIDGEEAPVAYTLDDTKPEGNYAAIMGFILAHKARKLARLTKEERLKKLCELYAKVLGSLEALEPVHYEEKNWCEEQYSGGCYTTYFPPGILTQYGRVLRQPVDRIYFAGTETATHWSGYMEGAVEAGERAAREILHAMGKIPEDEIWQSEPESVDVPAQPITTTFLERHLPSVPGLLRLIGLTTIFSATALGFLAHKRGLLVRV
Briefly: Inhibiton Assay. An excerpt:
(§1) Inhibition assay using MAO-A and MAO-B.

Experiment [2] deals with T2, Amine oxidase [flavin-containing] A (Homo sapiens, UniProt P21397).
T2 sequence (P21397 whole entry): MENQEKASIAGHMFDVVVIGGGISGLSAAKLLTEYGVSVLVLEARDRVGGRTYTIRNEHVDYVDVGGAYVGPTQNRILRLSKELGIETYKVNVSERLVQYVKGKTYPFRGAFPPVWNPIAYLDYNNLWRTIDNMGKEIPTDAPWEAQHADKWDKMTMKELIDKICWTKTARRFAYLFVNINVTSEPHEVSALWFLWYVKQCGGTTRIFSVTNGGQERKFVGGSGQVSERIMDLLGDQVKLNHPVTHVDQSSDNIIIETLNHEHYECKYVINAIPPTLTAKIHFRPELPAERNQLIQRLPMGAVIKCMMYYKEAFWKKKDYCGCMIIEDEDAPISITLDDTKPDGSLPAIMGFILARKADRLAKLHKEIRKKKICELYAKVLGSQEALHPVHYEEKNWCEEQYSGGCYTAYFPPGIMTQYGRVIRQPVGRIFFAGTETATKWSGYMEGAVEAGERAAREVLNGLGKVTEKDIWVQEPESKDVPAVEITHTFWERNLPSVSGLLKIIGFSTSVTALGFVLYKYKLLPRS
As to the kind of experiment: Inhibiton Assay.
Text: as §1

For `C[n+]1ccc(CCc2ccccc2)cc1` [MPP analogue, 17], the IC50 (as a rule, the midpoint of a concentration-inhibition curve) in experiment [1] worked out at 12 µM. Besides, the affinity in experiment [2], expressed as Ki, was 37 µM.

`C[n+]1ccc(Cc2ccccc2F)cc1` [MPP analogue, 18] returned an IC50 in experiment [1] of 2000 µM. Moreover, in experiment [2], the affinity corresponds to a Ki of 29 µM.

As to `C[n+]1ccc(Cc2cccc3ccccc23)cc1` [MPP analogue, 19], it took 850 µM to reach half-maximal inhibition in experiment [1] (IC50). The Ki (commonly a measure of affinity in units of concentration, obtained from inhibition or displacement) in experiment [2] was found to be 5.5 µM.

The values above are taken from BindingDB's records for doi:10.1021/bi00139a026 (University of California San Francisco, 1992).
